Results: publication PMC5628579, “Potent mechanism-based sirtuin-2-selective inhibition by an in situ-generated occupant of the substrate-binding site, “selectivity pocket” and NAD^+-binding site” (Chemical Science, 2017)

Key:
MDA-MB-231 cells = test: Cell growth assay (AlamarBlue), MDA-MB-231; type: cell-based, human; settings: 72 h of treatment
[1] = HPLC stability under SIRTs assay conditions; type: physicochemical; settings: buffer pH 8.0, 30 °C, 0–200 min
Description: HPLC stability of 36 under SIRTs assay conditions
Compound 36 (10 μL, 0.5 mM) in DMSO/buffer (50 mM Tris/HCl, pH = 8.0, 137 mM NaCl, 2.7 mM KCl, 1 mM MgCl2) was added to selected wells, followed by 40 μL of buffer (50 mM Tris/HCl, pH = 8.0, 137 mM NaCl, 2.7 mM KCl, 1 mM MgCl2). The obtained solution was incubated at 30 °C and 250 rpm for 0, 50, 100, 150, and 200 min. At the end of each incubation time, the wells were diluted with CH3CN (50 μL, HPLC grade). The entire volume (100 μL) was transferred to a Cosmospin filter H (0.45 μm) and 20 μL of the filtrate were injected in the HPLC instrument. Column:
(90%), 30–40 min (90–10%). The peak area was determined at 220 nm. […]

SIRT2 [2] = target: T1, SIRT2 (Homo sapiens, UniProt Q8IXJ6); test: Fluor de Lys SIRT2 assay
T1 sequence (Q8IXJ6 1-389): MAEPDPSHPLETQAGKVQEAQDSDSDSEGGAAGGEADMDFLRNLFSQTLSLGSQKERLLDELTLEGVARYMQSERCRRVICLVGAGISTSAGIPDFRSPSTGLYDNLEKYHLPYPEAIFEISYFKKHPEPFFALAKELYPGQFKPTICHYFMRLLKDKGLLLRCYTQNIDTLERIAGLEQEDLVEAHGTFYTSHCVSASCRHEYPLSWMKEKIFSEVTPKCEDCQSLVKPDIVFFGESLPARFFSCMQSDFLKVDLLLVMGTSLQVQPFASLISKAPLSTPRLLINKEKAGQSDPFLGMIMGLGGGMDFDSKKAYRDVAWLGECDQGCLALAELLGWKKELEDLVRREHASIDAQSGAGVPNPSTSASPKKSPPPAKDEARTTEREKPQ

SIRT2 [3] = target: T1, SIRT2; test: SIRT2 substrate competition analysis and time-dependent inhibition; type: biochemical; set-up: purchased Biomol / Enzo Life Sciences (Fluor de Lys kit AK-556) BML SE-251-0500
Description: added to the blank wells). […] Thereafter, […]
which three independent curves were generated. […]
added to the blank wells).
The results were plotted using GraFit 7.0.3.
SIRT2 substrate competition analysis for 36
The assay follows in general the same procedure reported for the SIRT2 assay (vide supra), except for the following changes: reaction time = 45 min; [NAD+] = 2 mM; [substrate] = 50, 80, 150, or […]
Mass spectrometric detection of the ADP-ribose conjugate
Reactions were conducted for 5 min at 37 °C in 5 μL containing 1.9 μM SIRT2 (SignalChem), 500 μM NAD+ or 6-AE-NAD+ (BIOLOG Life Science Institute), and 1 mM 36, as well as 40 mM sodium phosphate buffer (pH = 7.0), containing 240 mM NaCl, 120 mM imidazole, 0.08 mM PMSF, 0.2 mM DTT, 20% glycerol, and 2% DMSO. Controls were measured in the absence of compounds or the enzyme. The reaction mixtures were diluted with 5 μL of water and purified using ZipTip-μC18 (Millipore). The fraction eluted with 2 μL of 50% acetonitrile containing α-cyano-4-hydroxycinnamic acid at a concentration of 5 mg/mL was directly subjected to MALDI-TOF MS analysis. MALDI-TOF mass spectra were acquired on an AB SCIEX TOF/TOF™ 5800 (AB SCIEX) in reflectron […]

In the case of `C[C@H](NC(=O)[C@H](CCCCNC(=S)CNC(=O)c1ccccc1Nc1cccc(OCCc2ccccc2)c1)NC(=O)OCc1ccccc1)C(N)=O` [Compound 36], the GI50 (MDA-MB-231 cells) is reported as 8.43 ± 0.24 µM, the GI50 (MDA-MB-231 cells; Homo sapiens, MDA-MB-231, 72 h) is reported as 8.3 µM and the “HPLC stability under SIRTs assay conditions” value [1] is reported as “stable”. For the same compound, the IC50 (SIRT2 [2]) was 0.055 ± 0.0035 µM, the inhibition at 1 µM (SIRT2 [2]; read-out: % inhibition at 1 μM SIRT2) was 100 ± 3.4% and the “SIRT1 [IC50]/SIRT2 [IC50]” value (SIRT2 [2]; selectivity ratio) was 28.4. The “SIRT3 [IC50]/SIRT2 [IC50]” value (SIRT2 [2]; selectivity ratio) was 172.5, the “mode of SIRT2 inhibition (substrate competition analysis)” value (SIRT2 [3]; Lineweaver–Burk plot, NAD+ saturation) was “competitive inhibition with the acetylated lysine substrate” and the “time dependence of SIRT2 inhibitory effect” value (SIRT2 [3]; incubation 0–120 min with SIRT2, acetylated substrate, NAD+) was “time-dependent”.
